Four compounds from paper PMC7026418, “The kinase polypharmacology landscape of clinical PARP inhibitors” (Scientific Reports, 2020) can be followed below.

Read-outs that look alike come from different tables or passages of the source.

Targets include KIT(A829P) (Homo sapiens, UniProt P10721, A829P); GRK4 (Homo sapiens, UniProt P32298); STK16 (Homo sapiens, UniProt O75716); WEE1 (Homo sapiens, UniProt P30291); ROCK2 (Homo sapiens, UniProt O75116).
Test in all cases: biochemical
Set-up in all cases: DiscoveRx KINOMEscan active site-directed competition binding; percent of control kinase bound to immobilised ligand

The next experiment has as its target T1, IKK-alpha (Homo sapiens, UniProt O15111).
T1 construct: gene CHUK
T1 sequence (O15111 1-745): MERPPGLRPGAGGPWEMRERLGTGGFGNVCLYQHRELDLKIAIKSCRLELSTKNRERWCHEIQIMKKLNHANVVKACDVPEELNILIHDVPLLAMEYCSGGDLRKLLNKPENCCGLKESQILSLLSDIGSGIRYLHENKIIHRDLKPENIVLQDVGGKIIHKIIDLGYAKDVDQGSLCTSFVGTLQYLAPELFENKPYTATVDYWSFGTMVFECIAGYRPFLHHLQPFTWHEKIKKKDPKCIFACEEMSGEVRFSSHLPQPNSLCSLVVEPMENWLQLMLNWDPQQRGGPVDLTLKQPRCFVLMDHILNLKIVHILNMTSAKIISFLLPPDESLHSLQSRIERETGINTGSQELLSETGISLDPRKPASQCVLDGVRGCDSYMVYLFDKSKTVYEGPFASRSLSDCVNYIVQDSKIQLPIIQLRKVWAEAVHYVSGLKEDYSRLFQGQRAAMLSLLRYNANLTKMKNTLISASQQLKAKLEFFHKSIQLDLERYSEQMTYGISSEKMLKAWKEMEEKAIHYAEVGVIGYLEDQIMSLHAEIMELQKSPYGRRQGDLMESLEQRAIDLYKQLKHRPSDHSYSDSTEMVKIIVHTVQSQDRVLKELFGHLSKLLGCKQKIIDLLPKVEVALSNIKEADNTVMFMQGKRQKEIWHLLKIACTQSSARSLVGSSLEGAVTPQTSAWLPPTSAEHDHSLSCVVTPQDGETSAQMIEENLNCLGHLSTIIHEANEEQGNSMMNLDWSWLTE

Another experiment addresses T2, IRAK3 (Homo sapiens, UniProt Q9Y616).
T2 sequence (Q9Y616 1-596): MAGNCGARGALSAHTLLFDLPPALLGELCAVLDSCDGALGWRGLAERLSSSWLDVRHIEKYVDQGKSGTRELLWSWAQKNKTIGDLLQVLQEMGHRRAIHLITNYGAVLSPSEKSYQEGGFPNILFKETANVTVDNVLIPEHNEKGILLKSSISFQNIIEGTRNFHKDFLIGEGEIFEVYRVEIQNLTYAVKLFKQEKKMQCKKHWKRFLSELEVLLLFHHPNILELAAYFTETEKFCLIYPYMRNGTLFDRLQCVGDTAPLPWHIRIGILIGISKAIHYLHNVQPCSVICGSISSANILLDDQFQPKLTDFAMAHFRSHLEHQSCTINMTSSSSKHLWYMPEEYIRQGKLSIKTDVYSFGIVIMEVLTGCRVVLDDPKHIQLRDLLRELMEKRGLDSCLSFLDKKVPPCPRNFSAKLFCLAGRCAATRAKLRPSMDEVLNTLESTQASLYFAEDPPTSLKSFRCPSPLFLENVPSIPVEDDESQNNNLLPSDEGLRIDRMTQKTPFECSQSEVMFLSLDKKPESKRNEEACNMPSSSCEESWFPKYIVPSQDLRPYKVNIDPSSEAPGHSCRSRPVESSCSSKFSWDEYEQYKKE

Another experiment deals with T3, PLK4 (Homo sapiens, UniProt O00444).
T3 sequence (O00444 1-970): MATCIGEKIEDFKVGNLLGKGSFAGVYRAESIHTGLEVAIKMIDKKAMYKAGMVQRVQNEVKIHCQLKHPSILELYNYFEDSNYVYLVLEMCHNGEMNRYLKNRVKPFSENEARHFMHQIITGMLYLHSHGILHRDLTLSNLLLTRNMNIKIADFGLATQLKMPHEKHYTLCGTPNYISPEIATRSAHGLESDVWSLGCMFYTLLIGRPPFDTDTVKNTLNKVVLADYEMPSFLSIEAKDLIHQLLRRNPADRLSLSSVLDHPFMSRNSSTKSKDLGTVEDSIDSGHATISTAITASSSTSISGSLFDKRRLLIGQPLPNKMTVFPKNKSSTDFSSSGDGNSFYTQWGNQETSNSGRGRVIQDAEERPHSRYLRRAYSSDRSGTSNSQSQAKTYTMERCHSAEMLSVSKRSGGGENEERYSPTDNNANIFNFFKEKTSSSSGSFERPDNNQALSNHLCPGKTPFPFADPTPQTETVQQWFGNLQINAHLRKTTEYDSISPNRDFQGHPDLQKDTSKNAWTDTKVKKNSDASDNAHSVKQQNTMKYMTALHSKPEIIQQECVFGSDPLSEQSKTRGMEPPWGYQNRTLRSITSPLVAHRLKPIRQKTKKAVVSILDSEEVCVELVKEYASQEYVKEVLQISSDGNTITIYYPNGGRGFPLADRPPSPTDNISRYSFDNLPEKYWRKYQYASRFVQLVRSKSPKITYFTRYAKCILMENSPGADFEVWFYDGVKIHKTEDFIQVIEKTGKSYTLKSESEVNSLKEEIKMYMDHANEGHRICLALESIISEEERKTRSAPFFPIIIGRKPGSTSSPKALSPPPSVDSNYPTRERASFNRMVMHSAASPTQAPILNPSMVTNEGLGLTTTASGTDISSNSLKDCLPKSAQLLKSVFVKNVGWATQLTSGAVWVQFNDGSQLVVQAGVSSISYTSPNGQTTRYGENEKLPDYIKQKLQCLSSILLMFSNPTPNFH

Setting [1] is: read-out: Niraparib (MK-4827) / %Ctrl @ 10000nM.
The mark [2] stands for this setting: read-out: Talazoparib (BMN 673) / %Ctrl @ 10000nM.
The mark [3] stands for this setting: read-out: Rucaparib / %Ctrl @ 10000nM, binding competition, % of control.
[4] abbreviates: read-out: Olaparib / %Ctrl @ 10000nM.

Sequence of ROCK2 (O75116 whole entry): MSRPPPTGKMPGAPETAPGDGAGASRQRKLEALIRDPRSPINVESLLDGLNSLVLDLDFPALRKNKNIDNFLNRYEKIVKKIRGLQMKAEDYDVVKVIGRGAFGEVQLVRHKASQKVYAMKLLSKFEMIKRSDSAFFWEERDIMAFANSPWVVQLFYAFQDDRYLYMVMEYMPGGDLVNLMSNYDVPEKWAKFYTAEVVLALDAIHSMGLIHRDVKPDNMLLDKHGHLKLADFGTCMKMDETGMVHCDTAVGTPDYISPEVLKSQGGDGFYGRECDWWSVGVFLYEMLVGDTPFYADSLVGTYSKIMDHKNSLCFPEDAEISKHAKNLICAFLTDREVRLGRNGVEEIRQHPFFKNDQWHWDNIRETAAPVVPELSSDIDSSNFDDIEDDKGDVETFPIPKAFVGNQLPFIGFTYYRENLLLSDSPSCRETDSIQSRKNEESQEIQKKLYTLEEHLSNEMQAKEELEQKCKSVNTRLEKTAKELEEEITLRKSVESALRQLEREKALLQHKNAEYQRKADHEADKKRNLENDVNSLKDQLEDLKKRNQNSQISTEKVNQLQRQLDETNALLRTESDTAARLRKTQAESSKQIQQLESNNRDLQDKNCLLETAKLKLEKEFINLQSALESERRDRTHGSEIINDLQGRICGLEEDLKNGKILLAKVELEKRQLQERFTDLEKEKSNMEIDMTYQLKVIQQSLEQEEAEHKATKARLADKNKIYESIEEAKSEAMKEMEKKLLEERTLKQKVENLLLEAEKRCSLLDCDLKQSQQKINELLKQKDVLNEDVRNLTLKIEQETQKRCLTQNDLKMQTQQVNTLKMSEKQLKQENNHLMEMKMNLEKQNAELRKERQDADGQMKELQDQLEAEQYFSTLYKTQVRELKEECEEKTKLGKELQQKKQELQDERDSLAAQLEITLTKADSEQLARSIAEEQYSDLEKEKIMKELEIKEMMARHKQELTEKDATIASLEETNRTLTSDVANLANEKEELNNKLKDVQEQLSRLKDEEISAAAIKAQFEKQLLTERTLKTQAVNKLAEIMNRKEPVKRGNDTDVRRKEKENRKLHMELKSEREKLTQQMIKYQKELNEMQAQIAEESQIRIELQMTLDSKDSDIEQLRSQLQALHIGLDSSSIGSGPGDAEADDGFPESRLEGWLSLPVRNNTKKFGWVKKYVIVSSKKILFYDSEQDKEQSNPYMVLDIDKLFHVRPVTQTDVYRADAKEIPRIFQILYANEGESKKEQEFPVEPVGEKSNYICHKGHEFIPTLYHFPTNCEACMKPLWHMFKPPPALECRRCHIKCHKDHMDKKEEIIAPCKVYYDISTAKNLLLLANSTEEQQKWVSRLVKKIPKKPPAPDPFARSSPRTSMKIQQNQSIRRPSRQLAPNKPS
Sequence of KIT(A829P) (P10721 whole entry A829P): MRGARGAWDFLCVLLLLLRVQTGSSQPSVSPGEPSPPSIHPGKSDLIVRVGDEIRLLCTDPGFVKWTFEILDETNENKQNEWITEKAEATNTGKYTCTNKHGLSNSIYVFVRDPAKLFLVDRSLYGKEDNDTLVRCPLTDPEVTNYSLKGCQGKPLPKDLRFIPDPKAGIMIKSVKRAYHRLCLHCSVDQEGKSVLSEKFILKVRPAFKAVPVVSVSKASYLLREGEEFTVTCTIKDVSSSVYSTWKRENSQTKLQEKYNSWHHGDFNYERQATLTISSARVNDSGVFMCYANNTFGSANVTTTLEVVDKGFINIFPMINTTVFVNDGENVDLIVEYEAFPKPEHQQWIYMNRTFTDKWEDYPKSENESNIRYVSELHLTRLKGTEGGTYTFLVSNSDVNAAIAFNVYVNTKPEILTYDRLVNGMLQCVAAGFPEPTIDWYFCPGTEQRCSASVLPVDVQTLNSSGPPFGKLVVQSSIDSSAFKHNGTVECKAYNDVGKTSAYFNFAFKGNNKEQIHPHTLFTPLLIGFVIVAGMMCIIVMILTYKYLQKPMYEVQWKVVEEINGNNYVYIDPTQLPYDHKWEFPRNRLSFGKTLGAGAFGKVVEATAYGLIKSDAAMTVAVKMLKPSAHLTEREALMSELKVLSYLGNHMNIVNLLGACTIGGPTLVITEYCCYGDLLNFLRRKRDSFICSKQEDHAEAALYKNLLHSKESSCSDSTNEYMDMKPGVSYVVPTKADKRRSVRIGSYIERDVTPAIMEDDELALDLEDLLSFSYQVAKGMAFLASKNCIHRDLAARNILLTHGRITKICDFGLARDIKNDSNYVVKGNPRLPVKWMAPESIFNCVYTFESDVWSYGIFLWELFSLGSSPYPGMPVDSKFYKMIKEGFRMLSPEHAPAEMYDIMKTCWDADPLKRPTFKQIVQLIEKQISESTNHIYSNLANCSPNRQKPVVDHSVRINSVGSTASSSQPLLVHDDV
Sequence of GRK4 (P32298 whole entry): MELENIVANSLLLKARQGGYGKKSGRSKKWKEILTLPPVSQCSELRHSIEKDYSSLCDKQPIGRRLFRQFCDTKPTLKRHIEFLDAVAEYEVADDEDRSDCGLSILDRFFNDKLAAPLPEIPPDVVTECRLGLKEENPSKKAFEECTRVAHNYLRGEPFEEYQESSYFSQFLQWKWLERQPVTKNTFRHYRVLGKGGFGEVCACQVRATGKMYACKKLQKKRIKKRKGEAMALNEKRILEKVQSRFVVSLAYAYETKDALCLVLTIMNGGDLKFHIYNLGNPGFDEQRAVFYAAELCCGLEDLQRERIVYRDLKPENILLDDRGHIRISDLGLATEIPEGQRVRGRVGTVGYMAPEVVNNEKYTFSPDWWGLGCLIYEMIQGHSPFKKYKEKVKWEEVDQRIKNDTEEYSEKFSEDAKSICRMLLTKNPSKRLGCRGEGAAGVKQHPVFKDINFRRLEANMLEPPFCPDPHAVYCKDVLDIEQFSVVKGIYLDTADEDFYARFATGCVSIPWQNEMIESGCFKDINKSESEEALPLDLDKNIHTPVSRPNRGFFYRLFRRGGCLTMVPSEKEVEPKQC
Sequence of STK16 (O75716 whole entry): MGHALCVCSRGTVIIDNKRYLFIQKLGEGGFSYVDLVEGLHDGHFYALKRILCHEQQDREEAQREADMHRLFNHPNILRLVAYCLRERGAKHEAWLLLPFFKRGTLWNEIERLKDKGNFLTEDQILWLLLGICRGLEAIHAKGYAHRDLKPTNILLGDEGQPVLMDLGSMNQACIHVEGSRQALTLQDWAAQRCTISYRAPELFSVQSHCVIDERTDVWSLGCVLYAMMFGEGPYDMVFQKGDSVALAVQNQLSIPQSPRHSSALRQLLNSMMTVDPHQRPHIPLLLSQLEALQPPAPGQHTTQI
Sequence of WEE1 (P30291 whole entry): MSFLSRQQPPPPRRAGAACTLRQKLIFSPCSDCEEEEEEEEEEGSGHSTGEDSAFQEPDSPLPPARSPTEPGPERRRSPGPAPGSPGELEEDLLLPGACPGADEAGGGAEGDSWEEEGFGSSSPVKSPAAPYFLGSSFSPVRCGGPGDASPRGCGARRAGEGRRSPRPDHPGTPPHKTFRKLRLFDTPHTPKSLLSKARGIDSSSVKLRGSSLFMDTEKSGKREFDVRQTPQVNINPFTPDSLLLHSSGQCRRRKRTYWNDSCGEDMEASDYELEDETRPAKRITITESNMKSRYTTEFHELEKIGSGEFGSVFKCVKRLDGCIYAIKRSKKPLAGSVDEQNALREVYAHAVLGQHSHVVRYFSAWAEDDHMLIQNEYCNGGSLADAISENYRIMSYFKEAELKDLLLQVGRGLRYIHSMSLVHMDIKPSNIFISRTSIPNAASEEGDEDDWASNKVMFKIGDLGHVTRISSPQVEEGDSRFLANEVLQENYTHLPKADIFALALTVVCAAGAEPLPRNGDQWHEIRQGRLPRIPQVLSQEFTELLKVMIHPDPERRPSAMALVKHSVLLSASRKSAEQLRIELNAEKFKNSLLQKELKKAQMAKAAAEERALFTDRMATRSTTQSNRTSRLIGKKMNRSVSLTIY

`NC(=O)c1cccc2cn(-c3ccc([C@@H]4CCCNC4)cc3)nc12` [Niraparib]: the percent of control binding at 10 µM on KIT(A829P) (setting [1]) was 98%; on IKK-alpha (setting [1]) it was 100%; on GRK4 (setting [1]) it was 62%; on STK16 (setting [1]), 93%; at WEE1 (setting [1]) it was 100%; on IRAK3 (setting [1]), 90%. The percent of control binding at 10 µM on ROCK2 (setting [1]) came out at 73%; at PLK4 (setting [1]) it was 56%.

As to `Cn1ncnc1[C@H]1c2n[nH]c(=O)c3cc(F)cc(c23)N[C@@H]1c1ccc(F)cc1` [Talazoparib], the percent of control binding at 10 µM on KIT(A829P) (setting [2]) was determined as 100%; at IKK-alpha (setting [2]), 100%; on GRK4 (setting [2]), 100%; at STK16 (setting [2]), 90%; on WEE1 (setting [2]) it was 100%; at IRAK3 (setting [2]), 100%. The figures for the percent of control binding at 10 µM on ROCK2 (setting [2]) and at PLK4 (setting [2]) were 100% and 72%, respectively.

On to `CNCc1ccc(-c2[nH]c3cc(F)cc4c3c2CCNC4=O)cc1` [Rucaparib], for which the percent of control binding at 10 µM at KIT(A829P) (setting [3]) came out at 88%; on IKK-alpha (setting [3]), 42%; on GRK4 (setting [3]) it was 100%; on STK16 (setting [3]), 100%; on WEE1 (setting [3]), 92%; on IRAK3 (setting [3]), 86%. Also, the percent of control binding at 10 µM at ROCK2 (setting [3]) was 85%; at PLK4 (setting [3]), 99%.

With `O=C(c1cc(Cc2n[nH]c(=O)c3ccccc23)ccc1F)N1CCN(C(=O)C2CC2)CC1` [Olaparib], the percent of control binding at 10 µM was 79% at IKK-alpha (setting [4]); 91% on GRK4 (setting [4]); 83% at STK16 (setting [4]); 100% at WEE1 (setting [4]); 82% on IRAK3 (setting [4]); 75% on ROCK2 (setting [4]). On PLK4 (setting [4]), the percent of control binding at 10 µM stood at 91%.
